Like-named read-outs stand apart in the source and are kept apart here.
Test system: PLB-985 cells
Experiment: ROS production (isoluminol/HRP luminescence) in PLB-985 cells, Biological Example 1
Assay type: cell-based
Procedure: To cells (HL-60 or PLB-985) in HBSS medium was added compound (25 or 50 μM), isoluminol and Horse Radish Peroxidase, fraction II. Luminescence was measured for 10-30 minutes and the area under the […] curve was divided by that from a control experiment to give the activity expressed as fold change.
Each assay indicated below was performed at a different site, at a different time, by different personnel and/or using different cell lines, concentrations and controls. The cell line, concentration of example compound and control used in respect of each assay were as indicated below. The values obtained from these different setups (each using an otherwise identical assay) are given as Activity A, B, C, D or E in Table 5 below. The values are expressed as fold increase of NADPH activity in the presence of the relevant of compound (as indicated below) compared to the relevant control (as indicated below).
Activity A: HL-60 cells; 50 μM compound vs. blank Activity B: PLB-985 cells; 25 μM compound vs. blank Activity C, D and E: PLB-985 cells; 25 μM compound vs. DMSO

[1] = 25 μM compound vs. DMSO, setup E, read-out: Activity E (fold increase of NADPH activity compared to control)
[2] = 25 μM compound vs. DMSO, setup C, read-out: Activity C (fold increase of NADPH activity compared to control)
[3] = 25 μM compound vs. blank, read-out: Activity B (fold increase of NADPH activity compared to control)

| Compound | fold induction at 25 µM [1] | fold induction at 25 µM [2] | fold induction at 25 µM [3] | fold induction at 25 µM (25 μM compound vs. DMSO, setup D, read-out: Activity D (fold increase of NADPH activity compared to control)) |
| --- | --- | --- | --- | --- |
| COc1ccc2c(n1)c(=O)c(C(=O)c1ccc(F)cc1)cn2CC(=O)Nc1ccc(C)cc1 [Example 39, 2-[3-(4-Fluorobenzoyl)-6-methoxy-4-oxo-1,5-naphthyridin-1-yl]-N-p-tolylacetamide] | 76.2 | – | – | – |
| COc1ccc2c(n1)c(=O)c(C(=O)c1ccc(F)cc1)cn2CC(=O)Nc1ccc(C(F)(F)F)cc1 [Example 40, 2-[3-(4-Fluorobenzoyl)-6-methoxy-4-oxo-1,5-naphthyridin-1-yl]-N-(4-trifluoromethylphenyl)acetamide] | 73 | – | – | – |
| COc1cc(OC)c2c(c1)c(=O)c(C(=O)c1ccc(F)cc1)cn2CC(=O)Nc1ccc(Cl)cc1 [Example 42, N-(4-Chlorophenyl)-2-[6,8-dimethoxy-3-(4-fluorobenzoyl)-4-oxo-1-quinolinyl]acetamide] | 2.5 | – | – | – |
| COc1cccc2c(=O)c(C(=O)c3ccc(F)cc3)cn(CC(=O)Nc3ccc(Cl)cc3)c12 [Example 43] | 3.8 | – | – | – |
| COc1cc(OC)c2c(=O)c(C(=O)c3ccc(F)cc3)cn(CC(=O)Nc3ccc(Cl)cc3)c2c1 [Example 44] | 78.1 | – | – | – |
| COc1ccc(NC(=O)Cn2cc(S(=O)(=O)c3ccc(Cl)cc3)c(=O)c3cc4c(cc32)OCO4)cc1 [Example 45, N-p-Anisyl-2-[3-(4-chlorobenzenesulfonyl)-6,7-methylenedioxy-4-oxo-1-quinolinyl]acetamide] | – | 10.7 | – | – |
| COc1ccc(NC(=O)Cn2cc(C(=O)c3ccc(C)cc3)c(=O)c3cc4c(cc32)OCO4)cc1 [Example 46, N-p-Anisyl-2-(6,7-methylenedioxy-4-oxo-3-p-toluoyl-1-quinolinyl)acetamide] | – | 40.7 | 127 | – |
| COc1ccc(NC(=O)Cn2cc(C(=O)c3ccc(C)c(C)c3)c(=O)c3cc4c(cc32)OCO4)cc1 [Example 47, N-p-Anisyl-2-[3-(3,4-dimethylbenzoyl)-6,7-methylenedioxy-4-oxo-1-quinolinyl]acetamide] | – | 58.4 | 144 | – |
| O=C(Cn1cc(C(=O)c2ccccc2)c(=O)c2cc3c(cc21)OCO3)Nc1ccc(Cl)cc1 [Example 48, 2-(3-Benzoyl-6,7-methylenedioxy-4-oxo-1-quinolinyl)-N-(4-chlorophenyl)acetamide] | – | 42.5 | 81.4 | – |
| Cc1ccc(C(=O)c2cn(CC(=O)Nc3ccc(Cl)cc3)c3cc4c(cc3c2=O)OCO4)cc1 [Example 49, N-(4-Chlorophenyl)-2-(3-p-toluoyl-6,7-methylenedioxy-4-oxo-1-quinolinyl)acetamide] | – | 56.4 | 152 | – |
| Cc1ccc(C(=O)c2cn(CC(=O)Nc3ccc(Cl)cc3)c3cc4c(cc3c2=O)OCO4)cc1C [Example 50, N-(4-Chlorophenyl)-2-[3-(3,4-dimethylbenzoyl)-6,7-methylenedioxy-4-oxo-1-quinolinyl]acetamide] | – | 62.8 | 163 | – |
| O=C(Cn1cc(C(=O)c2ccc(Cl)cc2)c(=O)c2cc3c(cc21)OCO3)Nc1ccc(Cl)cc1 [Example 51, 2-[3-(4-Chlorobenzoyl)-6,7-methylenedioxy-4-oxo-1-quinolinyl]-N-(4-chlorophenyl)acetamide] | – | 66.7 | 174 | – |
| CCc1ccc(C(=O)c2cn(CC(=O)Nc3ccc(OC)c(OC)c3)c3cc4c(cc3c2=O)OCO4)cc1 [Example 52, N-(3,4-Dimethoxyphenyl)-2-[3-(4-ethylbenzoyl)-6,7-methylenedioxy-4-oxo-1-quinolinyl]acetamide] | – | 55.6 | 154 | – |
| CCc1ccc(C(=O)c2cn(CC(=O)Nc3ccc(Cl)cc3)c3cc4c(cc3c2=O)OCO4)cc1 [Example 53, N-(4-Chlorophenyl)-2-[3-(4-ethylbenzoyl)-6,7-methylenedioxy-4-oxo-1-quinolinyl]acetamide] | – | – | 150 | – |
| COc1ccc(NC(=O)Cn2cc(C(=O)c3ccc(F)cc3)c(=O)c3cc4c(cc32)OCO4)cc1 [Example 54, N-p-Anisyl-2-[(4-fluorobenzoyl)-6,7-methylenedioxy-4-oxo-1-quinolinyl]acetamide] | – | 61.5 | 74.2 | 13.5 |
| O=C(Cn1cc(C(=O)c2ccc(F)cc2)c(=O)c2cc3c(cc21)OCO3)Nc1ccc(F)cc1 [Example 55, 2-[3-(4-Fluorobenzoyl)-6,7-methylenedioxy-4-oxo-1-quinolinyl]-N-(4-fluorophenyl)acetamide] | – | 19.6 | 6.3 | – |

| Compound | fold induction at 25 µM [1] | fold induction at 25 µM [2] | fold induction at 25 µM [3] | fold induction at 25 µM (25 μM compound vs. DMSO, setup D, read-out: Activity D (fold increase of NADPH activity compared to control)) |
| --- | --- | --- | --- | --- |
| COc1cc(NC(=O)Cn2cc(C(=O)c3ccc(Cl)cc3)c(=O)c3cc4c(cc32)OCO4)cc(OC)c1 [Example 56, 2-[3-(4-Chlorobenzoyl)-6,7-methylenedioxy-4-oxo-1-quinolinyl]-N-(3,5-dimethoxyphenyl)acetamide] | – | 4.4 | 6.4 | – |
| COc1ccc(C(=O)c2cn(CC(=O)Nc3ccc4c(c3)OCCO4)c3cc4c(cc3c2=O)OCO4)cc1 [Example 58, 2-(3-p-Anisoyl-67-methylenedioxy-4-oxo-1-quinolinyl)-N-(3,4-ethylenedioxyphenyl)acetamide] | – | 3.6 | 2.5 | – |
| COc1ccc(C(=O)c2cn(CC(=O)Nc3ccc4c(c3)OCO4)c3cc4c(cc3c2=O)OCO4)cc1 [Example 59, 2-(3-p-Anisoyl-6,7-methylenedioxy-4-oxo-1-quinolinyl)-N-(3,4-methylenedioxyphenyl)acetamide] | – | 13.4 | 7.6 | – |
| O=C(Cn1cc(C(=O)c2ccc(Cl)cc2)c(=O)c2cc3c(cc21)OCO3)Nc1ccc2c(c1)OCCO2 [Example 60, 2-[3-(4-Chlorobenzoyl)-6,7-methylenedioxy-4-oxo-1-quinolinyl]-N-(3,4-ethylenedioxyphenyl)acetamide] | – | 33.3 | 51.8 | – |
| CCOc1ccc(C(=O)c2cn(CC(=O)Nc3ccc(Cl)cc3)c3cc4c(cc3c2=O)OCO4)cc1 [Example 61, N-(4-Chlorophenyl)-2-[3-(4-ethoxybenzoyl)-6,7-methylenedioxy-4-oxo-1-quinolinyl]acetamide] | – | 28.5 | 35.9 | – |
| Cc1ccc(C(=O)c2cn(CC(=O)Nc3ccc(F)cc3)c3cc4c(cc3c2=O)OCO4)cc1 [Example 62, N-(4-Fluorophenyl)-2-(6,7-methylenedioxy-4-oxo-3-p-toluoyl-1-quinolinyl)acetamide] | – | 26.1 | 51 | – |
| O=C(Cn1cc(C(=O)c2ccccc2)c(=O)c2cc3c(cc21)OCO3)Nc1ccc(F)cc1 [Example 63, 2-(3-Benzoyl-6,7-methylenedioxy-4-oxo-1-quinolinyl)-N-(4-fluorophenyl)acetamide] | – | 24.3 | 37.3 | – |
| O=C(Cn1cc(C(=O)c2ccccc2)c(=O)c2cc3c(cc21)OCO3)Nc1ccc2c(c1)OCO2 [Example 64, 2-(3-Benzoyl-6,7-methylenedioxy-4-oxo-1-quinolinyl)-N-(3,4-methylenedioxyphenyl)acetamide] | – | 27.9 | 41.1 | – |
| CCOc1ccc(C(=O)c2cn(CC(=O)Nc3ccc(OC)cc3OC)c3cc4c(cc3c2=O)OCO4)cc1 [Example 65, N-(2,4-Dimethoxyphenyl)-2-[3-(4-ethoxybenzoyl)-6,7-methylenedioxy-4-oxo-1-quinolinyl]acetamide] | – | 2.8 | 4.1 | – |
| CCOc1ccc(C(=O)c2cn(CC(=O)Nc3ccc4c(c3)OCCO4)c3cc4c(cc3c2=O)OCO4)cc1 [Example 66, 2-[3-(4-Ethoxybenzoyl)-6,7-methylenedioxy-4-oxo-1-quinolinyl]-N-(3,4-ethylenedioxyphenyl)acetamide] | – | 2.5 | 2.7 | – |
| CCOc1ccc(C(=O)c2cn(CC(=O)Nc3ccc(F)c(F)c3)c3cc4c(cc3c2=O)OCO4)cc1 [Example 67, N-(3,4-Difluorophenyl)-2-[3-(4-ethoxybenzoyl)-6,7-methylenedioxy-4-oxo-1-quinolinyl]acetamide] | – | 1.8 | 2.3 | – |
| COc1cccc(NC(=O)Cn2cc(C(=O)c3ccccc3)c(=O)c3cc4c(cc32)OCO4)c1 [Example 68, N-(m-Anisyl)-2-(3-benzoyl-6,7-methylenedioxy-4-oxo-1-quinolinyl)acetamide] | – | 6.7 | 10.1 | – |
| COc1cccc(NC(=O)Cn2cc(C(=O)c3ccc(Cl)cc3)c(=O)c3cc4c(cc32)OCO4)c1 [Example 69, N-(m-Anisyl)-2-[3-(4-chlorobenzoyl)-6,7-methylenedioxy-4-oxo-1-quinolinyl]acetamide] | – | 4 | 4.6 | – |
| CCOc1ccc(NC(=O)Cn2cc(C(=O)c3ccc(C)cc3)c(=O)c3cc4c(cc32)OCO4)cc1 [Example 70, N-(4-Ethoxyphenyl)-2-(6,7-methylenedioxy-4-oxo-3-p-toluoyl-1-quinolinyl)acetamide] | – | 25.4 | 33.2 | – |
| CCOc1ccc(NC(=O)Cn2cc(C(=O)c3ccc(CC)cc3)c(=O)c3cc4c(cc32)OCO4)cc1 [Example 71, N-(4-Ethoxyphenyl)-2-[3-(4-ethylbenzoyl)-6,7-methylenedioxy-4-oxo-1-quinolinyl]acetamide] | – | 25.1 | 43.6 | – |
